The record followed here is patent US20170065593A1, “Combination” (Novartis AG, priority 2009, published 2017).

Where two headings read alike, the source gives them in different places.

One series has as its system A427. In words: Cell growth inhibition assay (Cell Titer Glo, 3 days). It counts as cell-based, Human. As to conditions: A427 (KRAS_G12D), single agent, mean ± std. Here is the method:
(§1) Human tumor cell lines from lung cancer, A427, A549, Calu1, Calu3, Calu6, COR-L23, HOP62, MV522, NCI-H1155, NCI-H1299, NCI-H1355, NCI-H1395, NCI-H157, NCI-H1573, NCI-H1666, NCI-1755, NCI-H1792, NCI-2009, NCI-H2030, NCI-H2122, NCI-H2291, NCI-H23, NCI-H2347, NCI-H358, NCI-H441, NCI-H460, NCI-H650, NCI-H727, SW1573 and SW900 were cultured in RPMI 1640 medium containing 10% fetal bovine serum (FBS). Cell line mutation data was collated for the status for the RAS and RAF genes. The data source is the cancer cell line mutation screening data published as part of the Catalog of Somatic Mutations in Cancer database (COSMIC) (Bamford S. et al. Br. J. Cancer. 2004. 91:355-58) and/or in house DNA sequencing.
(§2) Cells were seeded in a 96-well tissue culture plate (NUNC 136102) of RPMI medium containing 10% FBS at 500-2,000 cells per well. Approximately 24 hours after plating, cells were exposed to ten, two-fold or three-fold serial dilutions of either Compound A or B or the combination of the two agents at a 10:1 molar ratio (Compounds A and B respectively). The final dosing concentration range for Compound A was 2-1000 nM and was 0.2-100 nM for Compound B. Cells were incubated in the presence of compounds for 3 days. ATP levels were determined by adding Cell Titer Glo® (Promega) according to the manufacturer's protocol. Briefly, Cell Titer Glo® was added to each plate, incubated for 20 minutes then luminescent signal was read on the SpectraMax L plate reader with a 0.5 sec integration time. All assays were run at least in duplicate.
(§3) Inhibition of cell growth was estimated after treatment with compound or combination of compounds for three days and comparing the signal to cells treated with vehicle (DMSO). Cell growth was calculated relative to vehicle (DMSO) treated control wells. Concentration of compound that inhibits 50% of control cell growth (IC50) was back-interpolated when y=50% of DMSO treated control wells using nonlinear regression with the equation: […]

For a further series, the system named is A549. Described as above. Type of series: cell-based, Human. The settings on record: A549 (KRAS_G12S), single agent, mean ± std. Here is the method: as §1, §2, §3
For the next series, the system named is CORL23. Described as above. The settings on record: CORL23 (KRAS_G12V), single agent, mean ± std. It counts as cell-based, Human. The protocol:
as §1, §2, §3

In another series the test system is NCI-H1573. Described as above. The settings on record: NCI-H1573 (KRAS-G12A), single agent, mean ± std. Type of series: cell-based, Human. Here is the method: as §1, §2, §3
The test system of the next series is NCI-H2030. The series is described as above. As to conditions: NCI-H2030 (KRAS_G12C), single agent, mean ± std. It counts as cell-based, Human. Here is the method: as §1, §2, §3
The next series deals with NCI-H2291. Described as above. Type of series: cell-based, Human. The settings on record: NCI-H2291 (KRAS_G12F), single agent, mean ± std. Here is the method: as §1, §2, §3
For a further series, the system named is NCI-H2347. Described as above. It counts as cell-based, Human. The settings on record: NCI-H2347 (RAS_H, N_Q61R), single agent, mean ± std. Here is the method: as §1, §2, §3
The subject of the next series is NCI-H23. Described as above. It counts as cell-based, Human. As to conditions: NCI-H23 (KRAS_G12C), single agent, mean ± std. Here is the method: as §1, §2, §3
The subject of the next series is NCI-H358. The series is described as above. Type of series: cell-based, Human. The settings on record: NCI-H358 (KRAS_G12C), single agent, mean ± std. Here is the method: as §1, §2, §3
The test system of series [1] is panel of 29 human lung tumor cell lines. The series is described as follows: Cell growth inhibition, summary over the panel. It counts as cell-based. As to conditions: out of 29 lines; single agent. Here is the method:
as §1
Cells were seeded in a 96-well tissue culture plate (NUNC 136102) of RPMI medium containing 10% FBS at 500-2,000 cells per well. […] ATP levels were determined by adding Cell Titer Glo® (Promega) according to the manufacturer's protocol. Briefly, Cell Titer Glo® was added to each plate, incubated for 20 minutes then luminescent signal was read on the SpectraMax L plate reader with a 0.5 sec integration time. […]
Inhibition of cell growth was estimated after treatment with compound or combination of compounds for three days and comparing the signal to cells treated with vehicle (DMSO). Cell growth was calculated relative to vehicle (DMSO) treated control wells. […]

A further series relates to 95 cancer cell lines. The protocol:
(Compound A) or mTOR inhibitor (mTORi, Rapamycin) alone or a combination of both agents at a ratio of 1:2 (MEKi:mTORi) and cell proliferation/death was measured after 3 day drug exposure. Briefly, cells were plated in 384-well plates at 500 cells/well in culture media appropriate for each cell type, supplemented with 10% FBS and 1% penicillin/streptomycin, and incubated overnight at 37° C., 5% CO2. […] (two fold dilutions ranging from 7.3 uM-0.014 nM) or with mTOR inhibitor (two fold dilutions ranging from 14.6 uM-0.112 nM) or in combination with both compounds and incubated for 72 hours. Cell growth was measured using the CellTiterGlo (CTG) reagent (Promega) according to the manufacturer's protocol. Data were analyzed using the XLfit (IDBS Ltd.) curve-fitting tool for Microsoft Excel. Growth IC50 (gIC50) and Ymin values were generated using a four-parameter curve fit algorithm (XLFit algorithm #205).
Results were expressed as a percent of the t=0 and plotted against the compound concentration. The T=0 value is normalized to 100% and represents the number of cells at the time of compound addition. […] Formula below was used to calculate mutually exclusive combination index (CI). Data were reported as log CI, where the logarithm value of CI was calculated.
CI=IC50 of a+b/IC50 of a+IC50 of b+a/IC50 of b
Synergy is defined as CI<1, additivity as CI=1 and antagonism as CI>1. Considering the variability of these proliferation assays we arbitrarily defined log CI>0.1 as antagonism, between −0.1 and 0.1 as no significant effect and <−0.1 as synergy.

The mark [2] stands for this setting: Homo sapiens, 72 h, read-out: IC50 Single Agent Compound B.
Setting [3] is: read-out: IC50 Single Agent Compound A.

Turning to `CO[C@H]1C[C@@H]2CC[C@@H](C)[C@@](O)(O2)C(=O)C(=O)N2CCCC[C@H]2C(=O)O[C@H]([C@H](C)C[C@@H]2CC[C@@H](OCCO)[C@H](OC)C2)CC(=O)[C@H](C)/C=C(\C)[C@@H](O)[C@@H](OC)C(=O)[C@H](C)C[C@H](C)/C=C/C=C/C=C/1C` [Compound B, everolimus], the IC50 in the series with A427 (Homo sapiens, A-427, 72 h, read-out: IC50 Single Agent Compound B) was over 0.1 µM; in the series on A549 (setting [2]) it was 0.003 ± 0.003 µM; in the series with CORL23 (Homo sapiens, COR-L23, 72 h, read-out: IC50 Single Agent Compound B) it was over 0.1 µM; with NCI-H1573 (setting [2]), over 0.1 µM; with NCI-H2030 (setting [2]), over 0.01 µM; in the series with NCI-H2291 (setting [2]) it was over 0.1 µM. Besides, the half-inhibitory concentration (IC50) with NCI-H2347 (setting [2]), in the series on NCI-H23 (setting [2]) and in the series with NCI-H358 (setting [2]) was over 0.1 µM in each case. Moreover, in series [1], the “number of lines sensitive (IC50s<100 nM)” value is 2.
Consider “N-{3-[3-cyclopropyl-5-(2-fluoro-4-iodo-phenylamino)6,8-dimethyl;-2,4,7-trioxo-3,4,6,7-tetrahydro-2H-pyrido[4,3-d]pyrimidin-1-yl]phenyl}acetamide [Compound A]”, for which the IC50 with A427 (setting [3]) is 0.095 ± 0.068 µM; in the series on A549 (setting [3]), 0.032 ± 0.009 µM; in the series with CORL23 (setting [3]), 0.989 ± 0.086 µM; with NCI-H1573 (setting [3]), 0.082 ± 0.011 µM; with NCI-H2030 (setting [3]), over 1 µM; in the series with NCI-H2291 (setting [3]) it was 0.004 µM. In addition, the IC50 with NCI-H2347 (setting [3]) turned out to be 0.007 ± 0.002 µM; with NCI-H23 (setting [3]), 0.031 ± 0.002 µM; with NCI-H358 (setting [3]), 0.031 ± 0.01 µM. Moreover, in [1], the “number of lines sensitive (IC50s<100 nM)” value stood at 17. In addition, the “percentage of cell undergoing death (cytotoxic)” value in the series with 95 cancer cell lines was 20%. Further, the “cell lines undergoing death” value in the series with 95 cancer cell lines (independent of the KRAS status) was over 20%.

By IC50 is commonly meant the point on the concentration scale where inhibition reaches its midpoint.
